In ChEMBL document CHEMBL1201862, “PubChem BioAssay data set” (2004):
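Results reflect a 48-hour exposure of cells in 96-well plates to compound at five concentrations. GI50 = concentration required for 50% inhibition of growth.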 Active and inactive are the calls of the source. Rule as the data show it: active = GI50 up to about 1.1 µM and inactive = higher.

Experiments:
Assay in all cases: NCI tumour cell line growth inhibition, 48 h
COLO 205 = system: COLO 205
NCI/ADR-RES = system: NCI/ADR-RES
U-251 = system: U-251
HT-29 = system: HT-29
SK-MEL-2 = system: SK-MEL-2
SNB-19 = system: SNB-19
SF-295 = system: SF-295
SR = system: SR
RPMI-8226 = system: RPMI-8226
786-0 = system: 786-0
UACC-257 = system: UACC-257
MDA-MB-435 = system: MDA-MB-435
OVCAR-8 = system: OVCAR-8
RXF 393 = system: RXF 393
IGROV-1 = system: IGROV-1
OVCAR-5 = system: OVCAR-5
PC-3 = system: PC-3
NCI-H522 = system: NCI-H522
NCI-H23 = system: NCI-H23
CAKI-1 = system: CAKI-1
BT-549 = system: BT-549
Hs-578T = system: Hs-578T
SF-539 = system: SF-539
SW-620 = system: SW-620
SK-MEL-5 = system: SK-MEL-5
EKVX = system: EKVX
MDA-N = system: MDA-N
NCI-H226 = system: NCI-H226
K562 = system: K562
TK-10 = system: TK-10
UO-31 = system: UO-31
MDA-MB-231 = system: MDA-MB-231
SN12C = system: SN12C
HL-60 = system: HL-60
HCT-116 = system: HCT-116
OVCAR-3 = system: OVCAR-3
A498 = system: A498
DU-145 = system: DU-145
LOX IMVI = system: LOX IMVI
SNB-75 = system: SNB-75
ACHN = system: ACHN
Malme-3M = system: Malme-3M
SF-268 = system: SF-268
MOLT-4 = system: MOLT-4
KM12 = system: KM12
OVCAR-4 = system: OVCAR-4
SK-MEL-28 = system: SK-MEL-28
MCF7 = system: MCF7
UACC-62 = system: UACC-62
HOP-62 = system: HOP-62
HCC 2998 = system: HCC 2998
HOP-92 = system: HOP-92
CCRF-CEM = system: CCRF-CEM
SK-OV-3 = system: SK-OV-3
NCI-H460 = system: NCI-H460
HCT-15 = system: HCT-15
M14 = system: M14
A549 = system: A549

For `OC1C2CN3CCN(C2)CC1(c1ccccc1)C3` (stereo not given), the GI50 (COLO 205) was > 100 µM (inactive), the GI50 (NCI/ADR-RES) was > 100 µM (inactive) and the GI50 (U-251) was > 100 µM (inactive). For the same compound, the GI50 (HT-29) was > 100 µM (inactive), the GI50 (SK-MEL-2) was > 100 µM (inactive) and the GI50 (SNB-19) was > 100 µM (inactive). For the same compound, the GI50 (SF-295) was > 100 µM (inactive), the GI50 (SR) was > 100 µM (inactive) and the GI50 (RPMI-8226) was > 100 µM (inactive). The GI50 (786-0) was > 100 µM (inactive), the GI50 (UACC-257) was > 100 µM (inactive) and the GI50 (MDA-MB-435) was > 100 µM (inactive). The GI50 (OVCAR-8) was > 100 µM (inactive), the GI50 (RXF 393) was > 100 µM (inactive) and the GI50 (IGROV-1) was > 100 µM (inactive). The GI50 (OVCAR-5) was > 100 µM (inactive), the GI50 (PC-3) was > 100 µM (inactive) and the GI50 (NCI-H522) was > 100 µM (inactive). The GI50 (NCI-H23) was > 100 µM (inactive), the GI50 (CAKI-1) was > 100 µM (inactive) and the GI50 (BT-549) was > 100 µM (inactive). For the same compound, the GI50 (Hs-578T) was > 100 µM (inactive), the GI50 (SF-539) was > 100 µM (inactive) and the GI50 (SW-620) was > 100 µM (inactive). The GI50 (SK-MEL-5) was > 100 µM (inactive), the GI50 (EKVX) was > 100 µM (inactive) and the GI50 (MDA-N) was > 100 µM (inactive). For the same compound, the GI50 (NCI-H226) was > 100 µM (inactive), the GI50 (K562) was > 100 µM (inactive) and the GI50 (TK-10) was > 100 µM (inactive). For the same compound, the GI50 (UO-31) was > 100 µM (inactive), the GI50 (MDA-MB-231) was > 100 µM (inactive) and the GI50 (SN12C) was > 100 µM (inactive). For the same compound, the GI50 (HL-60) was > 100 µM (inactive), the GI50 (HCT-116) was > 100 µM (inactive) and the GI50 (OVCAR-3) was > 100 µM (inactive). The GI50 (A498) was > 100 µM (inactive), the GI50 (DU-145) was > 100 µM (inactive) and the GI50 (LOX IMVI) was > 100 µM (inactive). The GI50 (SNB-75) was > 100 µM (inactive), the GI50 (ACHN) was > 100 µM (inactive) and the GI50 (Malme-3M) was > 100 µM (inactive). For the same compound, the GI50 (SF-268) was > 100 µM (inactive), the GI50 (MOLT-4) was > 100 µM (inactive) and the GI50 (KM12) was > 100 µM (inactive). For the same compound, the GI50 (OVCAR-4) was > 100 µM (inactive), the GI50 (SK-MEL-28) was > 100 µM (inactive) and the GI50 (MCF7) was > 100 µM (inactive). For the same compound, the GI50 (UACC-62) was > 100 µM (inactive) and the GI50 (HOP-62) was > 100 µM (inactive).

`CCOC(=O)CNC(=O)C(CSCc1ccc(Br)cc1)NC(=O)CCC(N)C(=O)OCC` (stereo not given) was tested, and the GI50 (COLO 205) was > 50 µM (inactive), the GI50 (NCI/ADR-RES) was > 50 µM (inactive) and the GI50 (U-251) was > 50 µM (inactive). The GI50 (HT-29) was > 50 µM (inactive), the GI50 (HCC 2998) was > 50 µM (inactive) and the GI50 (SK-MEL-2) was > 50 µM (inactive). For the same compound, the GI50 (SNB-19) was > 50 µM (inactive), the GI50 (SF-295) was > 50 µM (inactive) and the GI50 (SR) was > 50 µM (inactive). The GI50 (RPMI-8226) was > 50 µM (inactive), the GI50 (786-0) was > 50 µM (inactive) and the GI50 (UACC-257) was > 50 µM (inactive). The GI50 (MDA-MB-435) was > 50 µM (inactive), the GI50 (OVCAR-8) was > 50 µM (inactive) and the GI50 (RXF 393) was > 50 µM (inactive). For the same compound, the GI50 (HOP-92) was > 50 µM (inactive), the GI50 (IGROV-1) was > 50 µM (inactive) and the GI50 (OVCAR-5) was > 50 µM (inactive). The GI50 (CCRF-CEM) was > 50 µM (inactive), the GI50 (PC-3) was > 50 µM (inactive) and the GI50 (NCI-H522) was > 50 µM (inactive). The GI50 (NCI-H23) was > 50 µM (inactive), the GI50 (CAKI-1) was > 50 µM (inactive) and the GI50 (BT-549) was > 50 µM (inactive). For the same compound, the GI50 (Hs-578T) was > 50 µM (inactive), the GI50 (SF-539) was > 50 µM (inactive) and the GI50 (SW-620) was > 50 µM (inactive). The GI50 (SK-OV-3) was > 50 µM (inactive), the GI50 (SK-MEL-5) was > 50 µM (inactive) and the GI50 (EKVX) was > 50 µM (inactive). For the same compound, the GI50 (MDA-N) was > 50 µM (inactive), the GI50 (NCI-H460) was > 50 µM (inactive) and the GI50 (K562) was > 50 µM (inactive). For the same compound, the GI50 (HCT-15) was greater than 50 µM, the GI50 (UO-31) was > 50 µM (inactive) and the GI50 (M14) was > 50 µM (inactive). For the same compound, the GI50 (MDA-MB-231) was > 50 µM (inactive), the GI50 (SN12C) was > 50 µM (inactive) and the GI50 (HCT-116) was > 50 µM (inactive). For the same compound, the GI50 (OVCAR-3) was > 50 µM (inactive), the GI50 (DU-145) was > 50 µM (inactive) and the GI50 (SNB-75) was > 50 µM (inactive). The GI50 (ACHN) was > 50 µM (inactive), the GI50 (SF-268) was > 50 µM (inactive) and the GI50 (MOLT-4) was > 50 µM (inactive). For the same compound, the GI50 (KM12) was 40.6 µM (inactive), the GI50 (OVCAR-4) was > 50 µM (inactive) and the GI50 (SK-MEL-28) was > 50 µM (inactive). The GI50 (MCF7) was > 50 µM (inactive), the GI50 (UACC-62) was > 50 µM (inactive) and the GI50 (A549) was > 50 µM (inactive). The GI50 (HOP-62) was > 50 µM (inactive).

With `CN1C(=O)[C@@H]2[C@@H]3c4ccccc4N(S(=O)(=O)C(F)(F)F)[C@@H]3c3[nH]c4ccccc4c3[C@@H]2C1=O` the GI50 (COLO 205) was 7.91 µM (inactive), the GI50 (NCI/ADR-RES) was 26.3 µM (inactive) and the GI50 (U-251) was 31.3 µM (inactive). The GI50 (HT-29) was 7.67 µM (inactive), the GI50 (HCC 2998) was > 100 µM (inactive) and the GI50 (SK-MEL-2) was 81.5 µM (inactive). For the same compound, the GI50 (SNB-19) was > 100 µM (inactive), the GI50 (SF-295) was 50.7 µM (inactive) and the GI50 (SR) was 4.9 µM (inactive). For the same compound, the GI50 (RPMI-8226) was 8.39 µM (inactive), the GI50 (786-0) was 63.7 µM (inactive) and the GI50 (UACC-257) was 62.5 µM (inactive). For the same compound, the GI50 (MDA-MB-435) was > 100 µM (inactive), the GI50 (OVCAR-8) was 83 µM (inactive) and the GI50 (RXF 393) was 10.3 µM (inactive). The GI50 (HOP-92) was 1.63 µM (inactive), the GI50 (IGROV-1) was 0.175 µM (active) and the GI50 (OVCAR-5) was > 100 µM (inactive). The GI50 (CCRF-CEM) was 25.2 µM (inactive), the GI50 (PC-3) was 8.47 µM (inactive) and the GI50 (NCI-H23) was 54.1 µM (inactive). The GI50 (CAKI-1) was > 100 µM (inactive), the GI50 (BT-549) was > 100 µM (inactive) and the GI50 (Hs-578T) was 19.7 µM (inactive). The GI50 (SF-539) was > 100 µM (inactive), the GI50 (SW-620) was > 100 µM (inactive) and the GI50 (SK-OV-3) was > 100 µM (inactive). The GI50 (SK-MEL-5) was 36.4 µM (inactive), the GI50 (EKVX) was 5.74 µM (inactive) and the GI50 (MDA-N) was > 100 µM (inactive). The GI50 (NCI-H226) was 5.52 µM (inactive), the GI50 (NCI-H460) was 21.5 µM (inactive) and the GI50 (K562) was 7.28 µM (inactive). The GI50 (TK-10) was 47.8 µM (inactive), the GI50 (HCT-15) was 16.9 µM and the GI50 (UO-31) was 14.1 µM (inactive). For the same compound, the GI50 (MDA-MB-231) was 13.2 µM (inactive), the GI50 (SN12C) was > 100 µM (inactive) and the GI50 (HCT-116) was 17.2 µM (inactive). For the same compound, the GI50 (OVCAR-3) was 22.6 µM (inactive), the GI50 (A498) was > 100 µM (inactive) and the GI50 (DU-145) was 98.2 µM (inactive). For the same compound, the GI50 (LOX IMVI) was > 100 µM (inactive), the GI50 (SNB-75) was 13.2 µM (inactive) and the GI50 (ACHN) was 25.1 µM (inactive). For the same compound, the GI50 (SF-268) was > 100 µM (inactive), the GI50 (MOLT-4) was 4.3 µM (inactive) and the GI50 (OVCAR-4) was 82.4 µM (inactive). The GI50 (SK-MEL-28) was > 100 µM (inactive), the GI50 (MCF7) was 11.6 µM (inactive) and the GI50 (UACC-62) was > 100 µM (inactive). The GI50 (A549) was 11.2 µM (inactive) and the GI50 (HOP-62) was > 100 µM (inactive).
